Legend:
human TLR8 = biological target: T1, human TLR8 (Homo sapiens, UniProt Q9NR97); experiment: HEK-Blue hTLR8 SEAP reporter gene agonist assay; assay type: cell-based; conditions: HEK-Blue hTLR8 cells, 16 to 22 hours incubation
T1 construct: host or cells: HEK-Blue hTLR8 (HEK293-derived reporter cells)
T1 sequence (Q9NR97 27-1041): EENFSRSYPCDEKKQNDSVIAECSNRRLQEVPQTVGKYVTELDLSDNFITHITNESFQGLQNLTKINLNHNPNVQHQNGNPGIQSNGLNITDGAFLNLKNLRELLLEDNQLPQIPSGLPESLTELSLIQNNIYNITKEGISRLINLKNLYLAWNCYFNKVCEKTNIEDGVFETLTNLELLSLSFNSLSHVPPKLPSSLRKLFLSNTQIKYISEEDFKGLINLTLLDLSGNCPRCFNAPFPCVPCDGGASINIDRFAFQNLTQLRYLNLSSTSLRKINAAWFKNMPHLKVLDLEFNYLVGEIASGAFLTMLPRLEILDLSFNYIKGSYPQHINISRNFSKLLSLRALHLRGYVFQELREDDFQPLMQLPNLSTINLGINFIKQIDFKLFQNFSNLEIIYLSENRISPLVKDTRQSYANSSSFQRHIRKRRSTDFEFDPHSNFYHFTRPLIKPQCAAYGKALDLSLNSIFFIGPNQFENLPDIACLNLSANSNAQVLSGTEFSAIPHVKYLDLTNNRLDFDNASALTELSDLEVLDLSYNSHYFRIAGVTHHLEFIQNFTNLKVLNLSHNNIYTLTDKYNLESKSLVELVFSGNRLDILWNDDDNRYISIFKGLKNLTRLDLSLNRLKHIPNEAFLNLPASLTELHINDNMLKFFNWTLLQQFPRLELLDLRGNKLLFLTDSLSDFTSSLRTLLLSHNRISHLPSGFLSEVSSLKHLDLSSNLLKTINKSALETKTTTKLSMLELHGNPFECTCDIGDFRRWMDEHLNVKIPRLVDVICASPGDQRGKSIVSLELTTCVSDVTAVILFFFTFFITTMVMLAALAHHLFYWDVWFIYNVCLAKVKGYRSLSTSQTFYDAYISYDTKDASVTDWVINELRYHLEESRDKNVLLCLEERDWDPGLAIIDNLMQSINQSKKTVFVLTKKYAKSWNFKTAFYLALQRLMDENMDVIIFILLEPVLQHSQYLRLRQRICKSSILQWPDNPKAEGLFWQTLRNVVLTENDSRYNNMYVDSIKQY
Description: (§1) HEK-Blue™ cells that stably express human TLR7 or TLR8 are used to evaluate the agonistic activity of the compounds on TLR7 or TLR8, which is determined by the induction of the expression of SEAP reporter gene under the control of minimum IFN-β promoter fusion to 5×NF-κB and AP-1 binding sites. The assay is conducted as below:
(§2) HEK-Blue™ hTLR7 (Invivogen, 80,000 cells per well) or HEK-Blue™ hTLR8 (Invivogen, 60,000 cells per well) were added to the 96-well cell culture plate, followed by adding of the test compound. The final concentration of the test compound in the medium ranged from […], and was incubated for 16 to 22 hours. According to the manufacturer's instructions, the HEK-Blue assay reagent Quanti-blue (Invivogen) was used to measure SEAP levels in cell media. Optical density at 650 nm (OD650) was measured by Neo2 multifunction plate reader (Bio-tek). The half effective concentration (EC50) was calculated using GraphPad Prism.

human TLR7 = biological target: T2, human TLR7 (Homo sapiens, UniProt Q9NYK1); experiment: HEK-Blue hTLR7 SEAP reporter gene agonist assay; assay type: cell-based; conditions: HEK-Blue hTLR7 cells, 16 to 22 hours incubation
T2 construct: host or cells: HEK-Blue hTLR7 (HEK293-derived reporter cells)
T2 sequence (Q9NYK1 27-1049): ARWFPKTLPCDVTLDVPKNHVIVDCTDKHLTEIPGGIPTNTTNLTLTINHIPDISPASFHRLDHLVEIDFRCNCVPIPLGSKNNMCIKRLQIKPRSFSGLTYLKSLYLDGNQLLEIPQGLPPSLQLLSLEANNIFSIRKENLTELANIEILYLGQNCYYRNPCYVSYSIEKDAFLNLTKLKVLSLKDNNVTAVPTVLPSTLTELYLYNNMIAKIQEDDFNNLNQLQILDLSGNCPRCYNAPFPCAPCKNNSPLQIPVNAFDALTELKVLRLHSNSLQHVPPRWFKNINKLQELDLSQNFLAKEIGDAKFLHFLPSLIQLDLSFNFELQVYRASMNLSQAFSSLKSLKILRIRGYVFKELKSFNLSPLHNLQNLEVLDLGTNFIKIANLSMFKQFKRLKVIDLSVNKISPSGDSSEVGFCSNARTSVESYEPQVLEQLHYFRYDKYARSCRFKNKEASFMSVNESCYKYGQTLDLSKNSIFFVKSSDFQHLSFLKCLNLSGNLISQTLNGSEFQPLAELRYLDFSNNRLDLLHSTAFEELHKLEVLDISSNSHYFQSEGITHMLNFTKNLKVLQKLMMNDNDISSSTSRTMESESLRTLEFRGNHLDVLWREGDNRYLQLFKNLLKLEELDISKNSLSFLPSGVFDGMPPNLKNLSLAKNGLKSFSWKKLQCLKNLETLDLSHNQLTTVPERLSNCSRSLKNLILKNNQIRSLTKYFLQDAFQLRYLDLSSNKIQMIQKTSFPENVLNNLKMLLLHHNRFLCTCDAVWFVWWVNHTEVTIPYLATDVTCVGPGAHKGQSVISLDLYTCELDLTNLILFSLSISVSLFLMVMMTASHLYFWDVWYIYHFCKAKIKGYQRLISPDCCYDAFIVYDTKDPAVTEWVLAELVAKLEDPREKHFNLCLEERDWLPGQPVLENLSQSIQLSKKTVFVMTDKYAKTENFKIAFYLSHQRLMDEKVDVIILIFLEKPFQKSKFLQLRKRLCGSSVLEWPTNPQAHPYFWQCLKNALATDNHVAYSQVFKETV
Description: as §1, §2

Row | SMILES | EC50 (human TLR8) | EC50 (human TLR7)
1 | CCCC(CCC)Nc1nc(N)nc2ccn(Cc3ccc(C(=O)N4CCNCC4)cc3OC)c(=O)c12 [Compound I-132, 2-amino-4-(heptan-4-ylamino)-6-(2-methoxy-4-(piperazine-1-carbonyl)benzyl)pyrido[4,3-d]pyrimidin-5(6H)-one] | 660 nM | 84 nM
2 | CCC[C@@H](CC)Nc1nc(N)nc2ccn(Cc3ccc(CN4CCCC4)cc3)c(=O)c12 [Compound I-138, (R)-2-amino-4-(hexan-3-ylamino)-6-(4-(pyrrolidin-1-ylmethyl)benzyl)pyrido[4,3-d]pyrimidin-5(6H)-one] | 97 nM | 58 nM
3 | CCC[C@@H](C)Nc1nc(N)nc2ccn(Cc3ccc(CN4CCN(CCO)CC4)cc3)c(=O)c12 [Compound I-148, (R)-2-amino-6-(4-((4-(2-hydroxyethyl)piperazin-1-yl)methyl)benzyl)-4-(pentan-2-ylamino)pyrido[4,3-d]pyrimidin-5(6H)-one] | 40 nM | 40 nM
4 | CCC[C@@H](C)Nc1nc(N)nc2ccn(Cc3ccc(CN4CCCC4)cc3Cl)c(=O)c12 [Compound I-152, (R)-2-amino-6-(2-chloro-4-(pyrrolidin-1-ylmethyl)benzyl)-4-(pentan-2-ylamino)pyrido[4,3-d]pyrimidin-5(6H)-one] | 110 nM | 80 nM
5 | CCC[C@@H](C)Nc1nc(N)nc2ccn(Cc3ccc(OCCNC)nc3)c(=O)c12 [Compound I-153, (R)-2-amino-6-((6-(2-(methylamino)ethoxy)pyridin-3-yl)methyl)-4-(pentan-2-ylamino)pyrido[4,3-d]pyrimidin-5(6H)-one] | 40 nM | 90 nM
6 | CCC[C@@H](C)Nc1nc(N)nc2ccn(Cc3ccc(CN4CCCC4)cc3OC)c(=O)c12 [Compound I-154, (R)-2-amino-6-(2-methoxy-4-(pyrrolidin-1-ylmethyl)benzyl)-4-(pentan-2-ylamino)pyrido[4,3-d]pyrimidin-5(6H)-one] | 40 nM | 30 nM
7 | CCC[C@@H](C)Nc1nc(N)nc2ccn(Cc3ccc(C(=O)N4C5CNCC4C5)cc3)c(=O)c12 [Compound I-161, 6-(4-(3,6-diazabicyclo[3.1.1]heptane-6-carbonyl)benzyl)-2-amino-4-(((R)-pentan-2-yl)amino)pyrido[4,3-d]pyrimidin-5(6H)-one] | 40 nM | 110 nM
8 | CCC[C@@H](COC)Nc1nc(N)nc2ccn(Cc3ccc(CN4CCCC4)cc3OC)c(=O)c12 [Compound I-163, (S)-2-amino-6-(2-methoxy-4-(pyrrolidin-1-ylmethyl)benzyl)-4-((1-methoxypentan-2-yl)amino)pyrido[4,3-d]pyrimidin-5(6H)-one] | 70 nM | 30 nM

More lines, in order of falling EC50 (human TLR8), values ahead:

Row | EC50 (human TLR8) | EC50 (human TLR7) | SMILES
9 | 40 nM | 70 nM | CCC[C@@H](CCO)Nc1nc(N)nc2ccn(Cc3ccc(CN4CC5(COC5)C4)cc3)c(=O)c12 [Compound I-142, (S)-6-(4-((2-oxa-6-azaspiro[3.3]heptan-6-yl)methyl)benzyl)-2-amino-4-((1-hydroxyhexan-3-yl)amino)pyrido[4,3-d]pyrimidin-5(6H)-one]
10 | 30 nM | 40 nM | CCC[C@@H](C)Nc1nc(N)nc2ccn(Cc3ccc(CN4CC5(COC5)C4)cc3)c(=O)c12 [Compound I-150, (R)-6-(4-((2-oxa-6-azaspiro[3.3]heptan-6-yl)methyl)benzyl)-2-amino-4-(pentan-2-ylamino)pyrido[4,3-d]pyrimidin-5(6H)-one]
11 | 30 nM | 80 nM | CCC[C@@H](C)Nc1nc(N)nc2ccn(Cc3ccc(C(=O)N4CC5CC(C4)N5)cc3)c(=O)c12 [Compound I-151, 6-(4-(3,6-diazabicyclo[3.1.1]heptane-3-carbonyl)benzyl)-2-amino-4-(((R)-pentan-2-yl)amino)pyrido[4,3-d]pyrimidin-5(6H)-one]
12 | 30 nM | 40 nM | CCCC[C@@H](CO)Nc1nc(N)nc2ccn(Cc3ccc(CN4CCCC4)cc3OC)c(=O)c12 [Compound I-164, (S)-2-amino-4-((1-hydroxyhexan-2-yl)amino)-6-(2-methoxy-4-(pyrrolidin-1-ylmethyl)benzyl)pyrido[4,3-d]pyrimidin-5(6H)-one]
13 | 20 nM | 30 nM | CCC[C@@H](C)Nc1nc(N)nc2ccn(Cc3ccc(CN(C)CCO)cc3)c(=O)c12 [Compound I-139, (R)-2-amino-6-(4-(((2-hydroxyethyl)(methyl)amino)methyl)benzyl)-4-(pentan-2-ylamino)pyrido[4,3-d]pyrimidin-5(6H)-one]
14 | 20 nM | 50 nM | CCC[C@@H](C)Nc1nc(N)nc2ccn(Cc3ccc(CN(CCO)CCO)cc3)c(=O)c12 [Compound I-141, (R)-2-amino-6-(4-((bis(2-hydroxyethyl)amino)methyl)benzyl)-4-(pentan-2-ylamino)pyrido[4,3-d]pyrimidin-5(6H)-one]
15 | 20 nM | 20 nM | CCC[C@@H](C)Nc1nc(N)nc2ccn(Cc3ccc(CN(C)CCO)cc3OC)c(=O)c12 [Compound I-160, (R)-2-amino-6-(4-(((2-hydroxyethyl)(methyl)amino)methyl)-2-methoxybenzyl)-4-(pentan-2-ylamino)pyrido[4,3-d]pyrimidin-5(6H)-one]
16 | 10 nM | 20 nM | CCC[C@@H](CO)Nc1nc(N)nc2ccn(Cc3ccc(CN4CCN(C)CC4)cc3OC)c(=O)c12 [Compound I-162, (S)-2-amino-4-((1-hydroxypentan-2-yl)amino)-6-(2-methoxy-4-((4-methylpiperazin-1-yl)methyl)benzyl)pyrido[4,3-d]pyrimidin-5(6H)-one]
17 | 4 nM | 10 nM | CCC[C@@H](CO)Nc1nc(N)nc2ccn(Cc3ccc(CN4CCCC4)cc3OC)c(=O)c12 [Compound I-158, (S)-2-amino-4-((1-hydroxypentan-2-yl)amino)-6-(2-methoxy-4-(pyrrolidin-1-ylmethyl)benzyl)pyrido[4,3-d]pyrimidin-5(6H)-one]
18 | 3 nM | 44 nM | CCC[C@@H](CO)Nc1nc(N)nc2ccn(Cc3ccc(CN4CCCC4)cc3)c(=O)c12 [Compound I-127, (S)-2-amino-4-((1-hydroxypentan-2-yl)amino)-6-(4-(pyrrolidin-1-ylmethyl)benzyl)pyrido[4,3-d]pyrimidin-5(6H)-one]
